Tests used:
[1] = miscibility of propofol with semifluorinated alkanes; type: physicochemical; details: over a wide temperature range
Text: By virtue of the high solubility of propofol in semifluorinated alkanes, it is now possible to provide injectable propofol formulations having a high strength (or concentration of propofol), and thus require only a low volume of administration. This will also bring about an improved tolerability, since a lower administration volume inherently means a lower intake of excipients (such as emulsifiers).

[2] = test system: Candida albicans (ATCC 10231); assay: antimicrobial preservative effectiveness test in analogy to USP 32 <51>; type: cell-based; details: C. albicans; for cfu/mL 0 h: 0 h after inoculation; for cfu/mL 0 h / cfu/mL 24 h / cfu/mL 48 h: approx. 22.5° C.
Procedure: (§1) An antimicrobial preservative effectiveness test in analogy to that of USP 32 <51>was carried out. Sample vials prepared according to Examples 1, 3 and 4 were inoculated with Escherichia coli, Pseudomonas aeruginosa, Staphylococcus aureus, Candida albicans and Aspergillus niger and incubated at approx. 22.5° C. Commercially obtained samples of Disoprivan® were tested as comparators.
(§2) To determine whether the observed inhibition of microbial growth in the emulsions of the invention is an effect of the semifluorinated alkanes or the propofol, the test was repeated with a placebo emulsion containing no propofol, but only F6H8 in a higher concentration (40 wt.-%) and S75 in dextrose solution. Also tested were pure solutions of F6H8 and F4H5.

[3] = test system: Staphylococcus aureus (ATCC 6538); assay: as above; type: cell-based; details: S. aureus; for cfu/mL 0 h: 0 h after inoculation; for cfu/mL 0 h / cfu/mL 24 h / cfu/mL 48 h: approx. 22.5° C.
Procedure: as §1, §2

[4] = test system: Pseudomonas aeruginosa (ATCC 9027); assay: as above; type: cell-based; details: P. aeruginosa; for cfu/mL 0 h: 0 h after inoculation; for cfu/mL 0 h / cfu/mL 24 h / cfu/mL 48 h: approx. 22.5° C.
Procedure: as §1, §2

[5] = test system: Escherichia coli (ATCC 8739); assay: as above; type: cell-based; details: E. coli; for cfu/mL 0 h: 0 h after inoculation; for cfu/mL 0 h / cfu/mL 24 h / cfu/mL 48 h: approx. 22.5° C.
Procedure: as §1, with “comparators. […]” for “comparators.”

[6] = test system: Aspergillus niger (ATCC 16404); assay: as above; type: cell-based; details: A. niger; for cfu/mL 0 h: 0 h after inoculation; for cfu/mL 0 h / cfu/mL 24 h / cfu/mL 48 h: approx. 22.5° C.
Procedure: as §1, with “comparators. […]” for “comparators.”

[7] = hydroxyl group; cited from earlier work

Structure (SMILES)	miscibility of propofol with the semifluorinated alkane [1]	cfu/mL 0 h [2]	Change in log steps 24 h [2] [log steps]	cfu/mL 24 h [2] [cfu/mL]	Change in log steps 48 h [2] [log steps]	cfu/mL 48 h [2] [cfu/mL]	cfu/mL 0 h [3]	Change in log steps 24 h [3] [log steps]	cfu/mL 24 h [3] [cfu/mL]	Change in log steps 48 h [3] [log steps]	cfu/mL 48 h [3] [cfu/mL]	cfu/mL 0 h [4]	Change in log steps 24 h [4] [log steps]	cfu/mL 24 h [4] [cfu/mL]	Change in log steps 48 h [4] [log steps]	cfu/mL 48 h [4] [cfu/mL]	cfu/mL 0 h [5]	Change in log steps 24 h [5] [log steps]	cfu/mL 24 h [5] [cfu/mL]	Change in log steps 48 h [5] [log steps]	further results
CCCCCCCCC(F)(F)C(F)(F)C(F)(F)C(F)(F)C(F)(F)C(F)(F)F [Example F6H8]	fully miscible	1 500 cfu/mL	≤-1.2	<100	≤-1.1	<100	2 900 cfu/mL	≤-1.4	<100	≤-1.4	<100	1 600 cfu/mL	≤-1.2	<100	≤-1.2	<100	1 600 cfu/mL	≤-1.2	<100	≤-1.2	cfu/mL 48 h [5]: <100 cfu/mL; cfu/mL 0 h [6]: 1 500 cfu/mL; Change in log steps 24 h [6]: ≤-1.2 log steps; cfu/mL 24 h [6]: <100 cfu/mL; Change in log steps 48 h [6]: ≤-1.2 log steps; cfu/mL 48 h [6]: <100 cfu/mL; Change in log steps 6 d [6]: ≤-1.2 log steps; cfu/mL 6 d [6]: <100 cfu/mL
CCCCCCC(F)(F)C(F)(F)C(F)(F)C(F)(F)F [Example F4H6]	fully miscible	–	–	–	–	–	–	–	–	–	–	–	–	–	–	–	–	–	–	–	–
CCCCCC(F)(F)C(F)(F)C(F)(F)C(F)(F)F [Example F4H5]	fully miscible	1 500 cfu/mL	≤-1.2	<100	≤-1.1	<100	2 900 cfu/mL	≤-1.4	<100	≤-1.4	<100	1 600 cfu/mL	≤-1.2	<100	≤-1.2	<100	1 600 cfu/mL	≤-1.2	<100	≤-1.2	cfu/mL 48 h [5]: <100 cfu/mL; cfu/mL 0 h [6]: 3 000 cfu/mL; Change in log steps 24 h [6]: ≤-1.4 log steps; cfu/mL 24 h [6]: <100 cfu/mL; Change in log steps 48 h [6]: ≤-1.2 log steps; cfu/mL 48 h [6]: <100 cfu/mL; Change in log steps 6 d [6]: ≤-1.2 log steps; cfu/mL 6 d [6]: <100 cfu/mL
CC(C)c1cccc(C(C)C)c1O [propofol, 2,6-diisopropylphenol]	–	–	–	–	–	–	–	–	–	–	–	–	–	–	–	–	–	–	–	–	pKa [7]: 11

Reference: patent US20250345276A1, “O/W-EMULSIONS COMPRISING SEMIFLUORINATED ALKANES” (NOVALIQ GMBH, priority 2011, published 2025)
